Among the data in the OPERA property sets (Mansouri et al. 2018) are solubility values, retold here.

What is called solubility is the dissolved amount per volume that the medium holds.

The structures appear in SMILES notation. Converted amounts (≈) assume the structure as drawn.

The conditions of one data set: 25 °C.
`CCc1ccc(O)cc1`: the solubility was found to be 33.5 mM (≈ 4090 µg/mL).
As for `Cc1ccccc1S(N)(=O)=O`, the solubility was 9.46 mM (≈ 1620 µg/mL).
Take `CC(C)(C)CO`: the solubility was 397 mM (≈ 35000 µg/mL).
The same measure, in the same setting: the result for `CN1CC(O)N(c2nnc(C(C)(C)C)s2)C1=O` (stereo not drawn) reads 13.3 mM (≈ 3400 µg/mL).
Still for that read-out and setting: next, `C=CC#N`: 1400 mM (≈ 74500 µg/mL); `Fc1ccccc1Cl`: 3.84 mM (≈ 501 µg/mL).
On the same count and under the same terms, the result for `CCOC(=O)C=Cc1ccccc1` reads 1.01 mM (≈ 178 µg/mL); that for `O=C1CCCCC1`, 255 mM (≈ 25000 µg/mL).
In the case of `NS(=O)(=O)c1cc2c(cc1C(F)(F)F)NC(Cc1ccccc1)NS2(=O)=O` (stereo not drawn), the solubility came out at 0.256 mM (≈ 108 µg/mL).
On to `C[C@]12CCC(=O)C=C1CC[C@@H]1[C@@H]2CC[C@]2(C)C(=O)CC[C@@H]12`, for which the solubility came out at 0.202 mM (≈ 57.8 µg/mL).
On the same count and under the same terms, the result for `COC(C)C` reads 877 mM (≈ 65000 µg/mL).
Consider `CC[C@H](O)C(C)C`, for which the solubility was found to be 197 mM (≈ 20100 µg/mL).
As for `C1=CCCC1`, the solubility is 7.85 mM (≈ 535 µg/mL).
Take `NCCC(=O)O`: the solubility came out at 6120 mM (≈ 545000 µg/mL). Compared with the last compound, the solubility is about 780-fold higher.
The same measure, in the same setting: next, `CCCCCBr`: 0.841 mM (≈ 127 µg/mL); `S=C=Nc1cccc(Cl)c1`: 0.112 mM (≈ 19 µg/mL).
`COc1ccc(C(O)(c2cncnc2)C2CC2)cc1` (stereo not drawn): the solubility is 2.54 mM (≈ 650 µg/mL). This solubility is about 23-fold higher than that of the compound before.
Consider `O=C1NCCN1c1ncc([N+](=O)[O-])s1`, for which the solubility was found to be 0.607 mM (≈ 130 µg/mL).
As to `Clc1cc(Cl)c(-c2ccccc2)c(Cl)c1`, the solubility stood at 0.000978 mM (≈ 0.252 µg/mL).
Compound `c1ccc2c(c1)CCN2` gave a solubility of 90.6 mM (≈ 10800 µg/mL). This solubility is about 93000-fold higher than that of the compound before.
In the case of `Cc1cnc2c(ccc3c(C)c(C)cnc32)c1C`, the solubility amounted to 0.00639 mM (≈ 1.51 µg/mL).
For `O=C1CSC(=S)N1`, the solubility turned out to be 16.9 mM (≈ 2250 µg/mL).
Still for that read-out and setting: next, `C=C(C)c1ccccc1`: 0.982 mM (≈ 116 µg/mL); `O=C(O)c1ccccc1[N+](=O)[O-]`: 47 mM (≈ 7850 µg/mL).
In turn, `CC(C)CC(C)(C)C` showed a solubility of 0.0196 mM (≈ 2.24 µg/mL).
Same read-out and setting: the result for `C#CCC` reads 53.1 mM (≈ 2870 µg/mL); that for `Cc1cccc2sc3nncn3c12`, 8.45 mM (≈ 1600 µg/mL); that for `NCCCCCC(=O)O`, 3850 mM (≈ 505000 µg/mL).
The same measure, in the same setting: next, `O=C(O)COc1ccc(Cl)cc1Cl`: 3.06 mM (≈ 677 µg/mL); `Nc1cc[nH]c(=O)n1`: 72 mM (≈ 8000 µg/mL).
Same read-out and setting: next, `COP(=S)(OC)SCCSC(C)C`: 0.373 mM (≈ 97 µg/mL); `Cc1ccc2cc3ccccc3cc2c1`: 0.000111 mM (≈ 0.0213 µg/mL); `ONc1ccccc1`: 259 mM (≈ 28300 µg/mL).
Compound `Cc1cc(=O)[nH]o1` yielded a solubility of 858 mM (≈ 85000 µg/mL).
Regarding `Cc1ccc(C)c(O)c1`, the solubility amounted to 29 mM (≈ 3540 µg/mL).
Regarding `CCOP(=O)(OCC)OCC`, the solubility is 2740 mM (≈ 500000 µg/mL).
In the case of `Cc1c2ccccc2c(C)c2ccccc12`, the solubility turned out to be 0.000271 mM (≈ 0.056 µg/mL).
On to `Ic1cccc2ccccc12`, for which the solubility came to 0.0282 mM (≈ 7.16 µg/mL).
On the same count and under the same terms, next, `C[C@]12CC[C@H](O)CC1=CC[C@@H]1[C@@H]2CC[C@]2(C)C(=O)CC[C@@H]12`: 0.129 mM (≈ 37.2 µg/mL); `CC/C(=C(/CC)c1ccc(O)cc1)c1ccc(O)cc1`: 0.0447 mM (≈ 12 µg/mL).
`ClCCCCl` registered a solubility of 24.3 mM (≈ 2750 µg/mL). Compared with the last compound, the solubility is about 540-fold higher.
`CC(Cl)(Cl)C(=O)O` showed a solubility of 3510 mM (≈ 502000 µg/mL).
As to `CN(C)C(=O)N[C@@H]1C[C@@H]2C[C@H]1[C@@H]1CCC[C@H]21`, the solubility turned out to be 0.675 mM (≈ 150 µg/mL).
`CCCCC(C)C` returned a solubility of 0.0253 mM (≈ 2.54 µg/mL).
On the same count and under the same terms, next, `COc1ccc2c(c1)c(CC(=O)O)c(C)n2C(=O)/C=C/c1ccccc1`: 0.00286 mM (≈ 1 µg/mL); `Clc1cccc(Cl)c1-c1c(Cl)cccc1Cl`: 4.08e-05 mM (≈ 0.0119 µg/mL).
For the compound `Nc1ncnc2[nH]cnc12`, the solubility was found to be 7.62 mM (≈ 1030 µg/mL). This lies in the millimolar range.
With `OC(c1ccccc1)c1ccccc1`, the solubility was found to be 2.82 mM (≈ 520 µg/mL).
In turn, `NC(=O)CC[C@H](N)C(=O)O` registered a solubility of 283 mM (≈ 41300 µg/mL).
Compound `CCC(C)C(C)C` (stereo not drawn) came in with a solubility of 0.0524 mM (≈ 5.25 µg/mL). This solubility lies about 5400-fold lower than the previous one.
Take `CC(C)CCC(C)(C)C`: the solubility was found to be 0.00897 mM (≈ 1.15 µg/mL).
As for `O=C(O)c1ccccc1C(=O)Nc1cccc2ccccc12`, the solubility was determined as 0.687 mM (≈ 200 µg/mL).
As for `CC(C)(C)CC(=O)OCC(=O)[C@@]1(O)CC[C@H]2[C@@H]3CCC4=CC(=O)CC[C@]4(C)[C@H]3[C@@H](O)C[C@@]21C`, the solubility was 0.00308 mM (≈ 1.42 µg/mL).
The compound `CCC(C(=O)O)C(=O)O` returned a solubility of 5390 mM (≈ 712000 µg/mL).
Still for that read-out and setting: next, `Clc1cc(Cl)cc(-c2cc(Cl)cc(Cl)c2)c1`: 4.22e-06 mM (≈ 0.00123 µg/mL); `CCCCCCCCCCCCCCCCCC`: 2.36e-05 mM (≈ 0.006 µg/mL); `CC=CC(C)O` (stereo not drawn): 1040 mM (≈ 89200 µg/mL).
In turn, `C=CCN(CC=C)C(=O)CCl` gave a solubility of 113 mM (≈ 19700 µg/mL).
`Clc1cccc(-c2ccccc2)c1` had a solubility of 0.0192 mM (≈ 3.63 µg/mL).
For the compound `N#CNC(=N)N`, the solubility amounted to 491 mM (≈ 41300 µg/mL).
Turning to `Oc1c2ccccc2cc2ccccc12`, the solubility was determined as 0.0185 mM (≈ 3.59 µg/mL).
The same measure, in the same setting: next, `CCCOP(=O)(OCCC)Oc1ccc(SC)cc1`: 0.411 mM (≈ 125 µg/mL).

The same data set, now with this note: 27 °C.
`Cc1cc2ccccc2c2ccc3ccccc3c12` came in with a solubility of 0.000256 mM (≈ 0.062 µg/mL).

Staying with this data set, now noted: 28 °C.
In the case of `CCOC(=O)[C@H](Cc1ccccc1)NC(C)=O`, the solubility came out at 17.6 mM (≈ 4130 µg/mL).
The compound `c1ccc2c(c1)CCCC2` gave a solubility of 0.354 mM (≈ 46.8 µg/mL).

Still in this data set, the particulars now being: 30 °C.
Compound `COc1c2occc2cc2ccc(=O)oc12` yielded a solubility of 0.22 mM (≈ 47.6 µg/mL).
In the case of `CCCCC1C(=O)N(c2ccccc2)N(c2ccc(O)cc2)C1=O` (stereo not drawn), the solubility was 0.185 mM (≈ 60 µg/mL).
Compound `CC1=CC(=O)c2ccccc2C1=O` returned a solubility of 0.929 mM (≈ 160 µg/mL).
